This is an account of results in article PMC2229105 (The Journal of General Physiology, 1992).

Assay [1] concerns T-type Ca channels (guinea pig atrial cells). Kind of assay: whole-cell patch clamp, tail current analysis, modulated receptor theory. Type of assay: cell-based, Cavia porcellus. Particulars: read-out: KI, inactivated state (apparent). In general terms: Patch clamp records ionic current or voltage across a cell membrane.
Assay [2] relates to T-type Ca channels in GH3 cells. The assay is described as above. The assay is classed as cell-based, Rattus norvegicus. Particulars: read-out: KI; inactivated state (apparent); six experiments.

Read-outs that look alike come from different tables or passages of the source.

In the case of `CC1=C(C(=O)OC(C)C)[C@@H](c2cccc3nonc23)C([N+](=O)[O-])=C(C)N1` [(-)-(R)-202-791], the Kd in assay [1] (30-s prepulse) is 15.3 nM.

For the molecule `CCOC(=O)C1=C(C)NC(C)=C(C(=O)OC)C1c1cccc(Cl)c1Cl` (stereo not shown) [felodipine], in assay [2], the Kd was found to be 680 ± 220 nM. Turning to `CC(C)COCC(CN(Cc1ccccc1)c1ccccc1)N1CCCC1` (stereo not shown) [bepridil], the Kd in assay [1] (from block by 0.5 µM drug) was determined as 1240 nM. For the molecule `COC(=O)C1=C(C)NC(C)=C(C(=O)OC(C)C)C1c1cccc2nonc12` (stereo not shown) [isradipine], in assay [1] (30-s prepulse), the Kd came out at 20.4 nM.
